Measured values published in patent US20090069315A1, “Use of Pyrazolo(1,5A)Pyrimidin-7-YL Amine Derivatives in the Treatment of Neurological Disorders” (priority 2006, published 2009).

Legend:
EphA4 [1] = target: T1, EphA4 (Mus musculus, UniProt Q03137); experiment: Proof of mechanism: EphA4 phosphorylation in mouse brain after dosing; type: in vivo; parameters: from tissue; host or cells: brain of male NMRI mice; settings: male NMRI mice, 10 mg/kg; for crossing of the blood brain barrier: inferred from block of brain EphA4 phosphorylation; for EphA4 phosphorylation in vivo in mouse brain: i.v., sacrificed 25 minutes or 1 hour after dosing, FIG. 4
Protocol: Animals were given an i.v dose of relevant compound and sacrificed 25 minutes or 1 hour after dosing (0.25 h or 1 h), the brains removed and subjected to EphA4 immunoprecipitation followed by a phospho-tyrosine Western blot. Four animals were used as controls and three-animals each were used per time point for each drug. From top to bottom, the compounds tested were Compound 1, Compound 7, and Compound 6.
Male NMRI mice were injected with relevant compounds at a dose of 10 mg/kg body weight and were sacrificed either 25 minutes or 1 hour following the dosing (0.25 h or 1 h shown in FIG. 4). The brains were removed and one half of each brain was weighed and homogenized in appropriate volume of lysis buffer for 30 seconds (10 seconds pulse and 10 seconds off—3 times). The homogenate was spun at 12,000 g for 30 minutes. Protein amounts were estimated for supernatants (using BCA) and equal amounts of protein for each condition were subjected to EphA4 immunoprecipitation followed by a phospho-tyrosine western blot. Four control animals were used and three experimental animals per time point were used for each of the compounds tested (Compounds 1, 2, 6, and 7)

EphA4 [2] = target: T1, EphA4; experiment: EphA4 autophosphorylation assay in primary astrocyte cultures (EphA4 immunoprecipitation, phospho-tyrosine Western); type: cell-based; parameters: Primary astrocyte cultures are established from neonatal mouse cortex; endogenous in cells; host or cells: primary astrocytes from neonatal mouse cortex; settings: cells pre-treated with 100 nM; FIG. 1A
Protocol: FIG. 1A, lanes and 2 represent samples from cells treated with either control IgG-Fc or with the ligand ephrinB3-Fc. […] represent samples from cells that have been pre-treated with Compound 1 (100 nM) and are then stimulated with IgG-Fc or ephrinB3-Fc in the combined presence of the inhibitor (Compound I)(lanes 3, 4) or in its absence (lanes 5, 6). FIG. 1B, lanes 1 and 2 show EphA4 phosphorylation in control (untreated) and ephrinB3-Fc stimulated cells following serum starvation. All other lanes represent samples from cells stimulated with ephrinB3-Fc in the presence of varying concentrations (as indicated) of tested Eph inhibitors.
Primary astrocyte cultures are established from neonatal mouse cortex and purified so as to get about 95-98 pure astrocyte cultures. […] Cells are lysed, and the lysates subjected to EphA4 immunoprecipitation and subsequently analysed on Westerns for level of receptor phosphorylation using a phospho-tyrosine antibody.

[3] = tested on: embryonic cortical neurons; experiment: In vitro assay for neurite outgrowth/axon regeneration: E16 cortical neurons on astrocyte monolayers; type: cell-based; settings: 100 nM; immunofluorescence images, FIG. 2A
Protocol: This assay is used to assess neurite outgrowth inhibition of embryonic cortical neurons by Eph receptors expressed on astrocytes or neurite outgrowth inhibition of post-natal cortical neurons by ephrin ligand present in myelin. E16 (embryonic day 16) cortical neurons are plated onto confluent astrocyte monolayers plated in 4-well chamber slides. Pharmacological inhibitors, are added to the medium and the length of longest neurite from each neuron is measured under each condition (FIG. 2A depicts an example of neurons plated in the presence of Compound 1 and visualized with the neuronal marker, Tuj-1) and compared to average neurite length on astrocytes in the absence of any pharmacological agents. FIG. 2B depicts the quantitation of neurite outgrowth effects observed with Compound 6 and Compound 7 (all tested at 100 nM concentration) in cortical cultures plated on astrocytes.

astrocytes = experiment: In vitro assay for astrogliosis: astrocyte scratch wound (cytokine-induced migration); type: cell-based, mouse; settings: relative distance of cell migration compared to control; FIG. 3
Protocol: The white bar represents the addition of Compound 6. The black bar represents no compounds added.
Assay Astrocytes are prepared from the cerebral cortex of neonatal C57BL/6 mice (P1-P2). Cells are maintained in Dulbecco's modified Eagle's medium with 10% FBS. 4-7 weeks old astrocytes are plated to confluence in 2 well chamber slides coated with poly-D-lysine for the scratch wound assay and serum starved. 48 hrs after serum starvation, the monolayer of astrocytes is scratched with sterile 200 μl tips and washed twice with PBS to get rid of cell debris. Conditioned medium (+/−cytokines) is added to the wounded astrocytes. The microscopic images of the scratch is captured at a magnification of 10× right after scratch and considered as time point 0.24 hrs, 48 hrs or 72 hrs after scratch, the same region of scratch is imaged and fixed with methanol containing, 1 μg/ml of DAPI to monitor migration and proliferation of astrocytes.

T1 sequence (Q03137 20-986): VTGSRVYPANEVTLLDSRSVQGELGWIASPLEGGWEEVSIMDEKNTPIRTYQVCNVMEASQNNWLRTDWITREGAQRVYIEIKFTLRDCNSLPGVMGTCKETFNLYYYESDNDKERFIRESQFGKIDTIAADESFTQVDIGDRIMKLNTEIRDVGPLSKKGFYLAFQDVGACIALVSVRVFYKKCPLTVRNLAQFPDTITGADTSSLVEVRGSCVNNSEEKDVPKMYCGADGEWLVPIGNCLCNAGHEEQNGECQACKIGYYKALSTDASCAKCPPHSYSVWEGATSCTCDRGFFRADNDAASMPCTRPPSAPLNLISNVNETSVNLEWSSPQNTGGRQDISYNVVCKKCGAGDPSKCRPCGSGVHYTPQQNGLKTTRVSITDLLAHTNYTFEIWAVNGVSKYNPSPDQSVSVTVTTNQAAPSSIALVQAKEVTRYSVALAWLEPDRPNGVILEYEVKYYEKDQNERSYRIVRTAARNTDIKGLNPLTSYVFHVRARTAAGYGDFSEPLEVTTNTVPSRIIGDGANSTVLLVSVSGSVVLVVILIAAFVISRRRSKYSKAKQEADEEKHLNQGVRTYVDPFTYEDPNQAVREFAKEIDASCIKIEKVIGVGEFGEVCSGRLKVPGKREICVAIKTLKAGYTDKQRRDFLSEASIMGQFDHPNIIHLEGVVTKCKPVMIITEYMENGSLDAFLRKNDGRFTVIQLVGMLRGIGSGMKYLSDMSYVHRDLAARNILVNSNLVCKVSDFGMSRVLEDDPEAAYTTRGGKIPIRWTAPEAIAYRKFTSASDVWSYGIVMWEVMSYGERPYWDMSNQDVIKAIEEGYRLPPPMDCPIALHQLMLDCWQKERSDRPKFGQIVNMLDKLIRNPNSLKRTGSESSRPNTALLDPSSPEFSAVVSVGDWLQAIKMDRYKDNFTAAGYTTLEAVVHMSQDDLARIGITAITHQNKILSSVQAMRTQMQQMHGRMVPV

Row | Structure (SMILES) | melting point [°C] | other results
1 | CN(C)c1ccc(-c2cnn3c(N)c(-c4ccc(NS(=O)(=O)c5cccc(Cl)c5Cl)cc4)cnc23)cc1 [Example 17, N-{4-[7-Amino-3-(4-dimethylamino-phenyl)-pyrazolo[1,5-a]pyrimidin-6-yl]-phenyl}-2,3-dichloro-benzenesulfonamide] | 143 to 146 | –
2 | Cc1nc2c(-c3cccc(N4CCN(C)CC4)c3)cnn2c(N)c1-c1cccc(Br)c1 [Example 91, 6-(3-Bromo-phenyl)-5-methyl-3-[3-(4-methyl-piperazin-1-yl)-phenyl]-pyrazol-o[1,5-a]pyrimidin-7-ylamine] | 107 to 113 | –
3 | Cc1nc2c(-c3cccc(N4CCN(CCO)CC4)c3)cnn2c(N)c1-c1ccc(F)c(Cl)c1 [Compound 4, 2-(4-{3-[7-Amino-6-(3-chloro-4-fluoro-phenyl)-5-methyl-pyrazolo[1,5-a]pyrimidin-3-yl]-phenyl}-piperazin-1-yl)-ethanol] | 104 to 107 | –
4 | COc1ccc(-c2cnn3c(N)c(-c4cccc(Cl)c4)c(CN4CCNCC4)nc23)cc1OC [Compound 6, 6-(3-Chloro-7-phenyl)-3-(3,4-dimethoxy-phenyl)-5-piperazin-1-ylmethyl-pyrazolo[1,5-a]pyrimidin-7-ylamine] | – | crossing of the blood brain barrier (EphA4 [1]): cross the blood brain barrier; EphA4 phosphorylation in vivo in mouse brain (EphA4 [1]): effectively block phosphorylation of EphA4 receptor in vivo; astrocyte migration induced by cytokines (TGF-α, LIF, and IFN) (astrocytes): block astrocyte migration
5 | Cc1nc2c(-c3ccc(OCCN(C)C)cc3)cnn2c(N)c1-c1cccc(Cl)c1 [Compound 7, 6-(3-Chloro-phenyl)-3-[4-(2-dimethylamino-ethoxy)-phenyl]-5-methyl-1-pyrazolo[1,5-a]pyrimidin-7-ylamine] | – | crossing of the blood brain barrier (EphA4 [1]): cross the blood brain barrier; EphA4 phosphorylation in vivo in mouse brain (EphA4 [1]): effectively block phosphorylation of EphA4 receptor in vivo
6 | COc1ccc(-c2cnn3c(N)c(-c4cccc(Cl)c4)c(CF)nc23)cc1OC [Example 99, 6-(3-Chloro-phenyl)-3-(3,4-dimethoxy-phenyl)-5-fluoromethyl-pyrazolo[1,5-a]pyrimidin-7-ylamine] | 228 to 230 | –
7 | Cc1nc2c(-c3cccc(N4CCN(C5CCN(C)CC5)CC4)c3)cnn2c(N)c1-c1cccc(Cl)c1 [Compound 5, 6-(3-Chloro-phenyl)-5-methyl-3-{3-[4-(1-methyl-piperidin-4-yl)-piperazin-1-yl]-phenyl}-pyrazolo[1,5-a]pyrimidin-7-ylamine] | 180 to 185 | –
8 | COc1ccc(-c2cnn3c(N)c(-c4cccc(Cl)c4)c(C)nc23)cc1 [Example 95, 6-(3-Chloro-phenyl)-3-(4-methoxy-phenyl)-5-methyl-pyrazolo[1,5-a]pyrimidin-7-ylamine] | 171 to 172 | –
9 | Cc1nc2c(-c3cccc(N4CCN(CCO)CC4)c3)cnn2c(N)c1-c1ccc(F)c(F)c1 [Example 108, 2-(4-{3-[7-Amino-6-(3,4-difluoro-phenyl)-5-methyl-pyrazolo[1,5-a]pyrimidin-3-yl]-phenyl}-piperazin-1-yl)-ethanol] | 172 to 174 | –

Further lines, with some results ahead:

Row | melting point [°C] | Structure (SMILES) | other results
10 | 208 to 210 | CCN(CC)C1CCN(c2cccc(-c3cnn4c(N)c(-c5ccc(F)cc5)c(C)nc34)c2)CC1 [Example 112, 3-[3-(4-Diethylamino-piperidin-1-yl)-phenyl]-6-(4-fluoro-phenyl)-5-methyl-pyrazolo[1,5-a]pyrimidin-7-ylamine] | –
11 | 235 to 238 | COc1ccc(-c2cnn3c(N)c(-c4ccc(F)c(Cl)c4)c(C)nc23)cc1OC [Example 101, 6-(3-Chloro-4-fluoro-phenyl)-3-(3,4-dimethoxy-phenyl)-5-methyl-pyrazolo[1,5-a]pyrimidin-7-ylamine] | –
12 | 224 to 227 | COc1ccc(-c2cnn3c(N)c(-c4ccc(F)c(Cl)c4)c(C)nc23)cc1 [Example 102, 6-(3-Chloro-4-fluoro-phenyl)-3-(4-methoxy-phenyl)-5-methyl-pyrazolo[1,5-a]-pyrimidin-7-ylamine] | –
13 | 243 to 244 | COc1ccc(-c2cnn3c(N)c(-c4ccc(F)cc4)c(C)nc23)cc1 [Example 103, 6-(4-Fluoro-phenyl)-3-(4-methoxy-phenyl)-5-methyl-pyrazolo[1,5-a]pyrimidin-7-ylamine] | –
14 | 163 to 168 | CCN(CC)C1CCN(c2cccc(-c3cnn4c(N)c(-c5cccc(Cl)c5)c(C)nc34)c2)CC1 [Compound 1, 6-(3-Chloro-phenyl)-3-[3-(4-diethylamino-piperidin-1-yl)-phenyl]-5-methyl-pyrazolo[1,5-a]pyrimidin-7-ylamine] | crossing of the blood brain barrier (EphA4 [1]): cross the blood brain barrier; EphA4 phosphorylation in vivo in mouse brain (EphA4 [1]): effectively block phosphorylation of EphA4 receptor in vivo; inhibition of EphA4 auto-phosphorylation (phospho-tyrosine Western blot) (EphA4 [2]): inhibition of EphA4 auto-phosphorylation; overcoming neurite outgrowth inhibition [3]: able to overcome neurite outgrowth inhibition
15 | 186 to 191.88 | CN(C)c1ccc(-c2cnn3c(N)c(-c4ccc(OS(=O)(=O)c5ccc(Cl)cc5)cc4)cnc23)cc1 [Example 18, 4-Chloro-benzenesulfonic acid 4-[7-amino-3-(4-dimethylamino-phenyl)-pyrazolo[1,5-a]pyrimidin-6-yl]-phenyl ester] | –
16 | 223 to 226 | COc1ccc(-c2cnn3c(N)c(-c4cccc(Cl)c4)c(C)nc23)cc1OC [Compound 3, 6-(3-Chloro-phenyl)-3-(3,4-dimethoxy-phenyl)-5-methyl-pyrazolo[1,5-a]pyrimidin-7-ylamine] | –
17 | 197 to 200 | CN1CCN(c2ccc(-c3cnn4c(N)c(-c5ccccc5Cl)cnc34)cc2)CC1 [Example 84, 6-(2-Chloro-phenyl)-3-[4-(4-methyl-piperazin-1-yl)-phenyl]-pyrazolo[1,5-a]-pyrimidin-7-ylamine] | –
18 | 72 to 75 | CN1CCN(c2cccc(-c3cnn4c(N)c(Cc5ccccc5)cnc34)c2)CC1 [Example 98, 6-Benzyl-3-[3-(4-methyl-piperazin-1-yl)-phenyl]-pyrazolo[1,5-a]pyrimidin-7-ylamine] | –
19 | 200 to 203 | CN1CCN(c2cccc(-c3cnn4c(N)c(-c5ccccc5Cl)cnc34)c2)CC1 [Example 85, 6-(2-Chloro-phenyl)-3-[3-(4-methyl-piperazin-1-yl)-phenyl]-pyrazolo[1,5-a]-pyrimidin-7-ylamine] | –
